{"source": "patent US10072026B2", "about": "“Crystalline form of 3-((1R,3s,5S)-3-((7-((5-methyl-1H-pyrazol-3-yl)amino)-1,6-naphthyridin-5-yl)amino)-8-azabicyclo[3.2.1]octan-8-yl)propanenitrile” (priority 2015, dated 2018)", "key": {"mouse splenic NK cells": {"tested_on": "mouse splenic NK cells", "assay": "Immunosuppression effects in mouse splenic natural killer (NK) cells", "type": "in vivo, Balb/C mice", "details": "PO BID three days; for treatment effect on B and T cell populations: mouse spleen", "procedure": "Adult male Balb/C mice (12-14 weeks of age) from Harlan were used for the study. […] Spleens were harvested 1 or 2 h post last dose and crushed immediately for cell subtype staining. Prior to fixation, fluorophore-labelled antibodies for CD19 (FITC; B cells), CD3e (PE; pan T cells) and DX5 (APC; NK cells) were incubated with splenocyte samples from each animal to allow for simultaneous, multiple subtype % analysis on the flow cytometer. The number of total spleen cells for each animal was measured by Scepter™ 2.0 Handheld Automated Cell Counter. The absolute number of lymphocyte subtype population (e.g., splenic B, T and NK cells) was calculated from the percentage of each subtype times total spleen cells for each animal. A one way ANOVA, with Dunnett's post hoc test, was used to compare the splenic lymphocytes number of the vehicle and test compound groups. The a level was set at p<0.05. Data were presented as the mean±SEM for each group."}, "in vivo": {"assay": "in vivo", "parameters": "species or system Sprague Dawley rats", "details": "Sprague Dawley, rat, po, 5 mg/kg", "procedure": "Assay 5: Colon Pharmacokinetics in Rats\nTest compounds were individually formulated in 0.5% methyl-cellulose in water and dosed via oral gavage at 5 mg/kg to Sprague Dawley rats. At various time points (typically 1, 2, 4, 6, 24 hr) post dosing, blood samples were removed via cardiac puncture and intact colons were excised from the rats. Blood samples were centrifuged at 1500×g for 15 min to collect plasma. Colons were washed with ice cold phosphate buffered saline (PBS), weighed, and homogenized at a dilution of 1:10 in PBS. Plasma and colon levels of test compound were determined by LC-MS analysis against analytical standards constructed into a standard curve in the test matrix. A colon to plasma ratio was determined as the ratio of the colon AUC to the plasma AUC in μg hr/g."}, "[1]": {"assay": "Pharmacokinetics in plasma and the GI tract in rats", "type": "in vivo, Sprague Dawley rats", "details": "rat, 5 mg/kg oral, all time points (0.5-24 hr); below limit of quantitation", "procedure": "Assay 6: Pharmacokinetics in Plasma and the GI Tract in Rats and Dogs A test compound was dosed to male Sprague Dawley rats (n=3) as described in Assay 5. […] At all time points, the plasma concentration was below the limit of quantitation of 0.001 μg/mL."}, "[2]": {"assay": "Pharmacokinetics in plasma and the GI tract in dogs", "type": "in vivo", "details": "male, beagle, GI tissue (duodenum, ileum, cecum, colon) and plasma, dog, 5 mg/kg oral", "procedure": "Assay 6: Pharmacokinetics in Plasma and the GI Tract in Rats and Dogs\nAn analogous experiment was performed in dogs. Male beagle dogs (n=2) were dosed via oral gavage with 5 mg/kg of test compound, formulated as above. In dog number 1, plasma samples were taken at 0.25, 1, 2, 4, 6, and 24 hr post dosing. In dog number 2, plasma samples were taken to 6 hr. In both dog number 1 (at 24 hr) and dog number 2 (at 6 hr) the GI tract was removed and segmented as follows: duodenum, ileum, cecum and the colon segmented into equal thirds (proximal, middle, and distal colon). For each of the GI segments, an approximately 2 cm piece was excised in the middle of the segment. Each was washed thoroughly in ice cold PBS buffer and then homogenized in 5 volumes of PBS buffer and analyzed as above. […] The GI tissue to plasma ratio ranged from about 7 to about 30 for collections conducted at 24 hours post oral dose."}, "[3]": {"tested_on": "oxazolone-induced colitis", "assay": "Mouse model of oxazolone-induced colitis", "type": "in vivo, BALB/C mice", "procedure": "Assay 7: Mouse Model of Oxazalone-Induced Colitis\nOxazolone-induced colitis is an experimental model that has a histological resemblance to human ulcerative colitis (Heller et al. Immunology, 2002, 17, 629-638). Adult BALB/C mice from Harlan were used in the assay. On day 1, animals were lightly anesthetized with isoflurane and the hairs between the shoulder were carefully removed before oxazolone (4%, 150 μL, 4:1 acetone:olive oil formulation) or vehicle solution was slowly applied for skin sensitization. Seven days after skin sensitization, the mice were fasted overnight, anesthetized with isoflurane inhalation, and a 1 mL syringe equipped with a 3.5-F catheter, filled with oxazolone solution, was inserted carefully about 4 cm into the colon of the mouse. Following insertion, 50 μL of the oxazolone solution (1%, 1:1 ethanol:water formulation) was injected very slowly (over 30 sec using an injection pump) into the colon. The catheter was removed and the mice were held vertically (head down) for 2 min to ensure that the entire oxazolone solution remained inside the colon. Drug treatment (PO, BID or TID) or vehicle was initiated a day prior to the oxazolone intrarectal (IR) challenge. Two-day post oxazolone intrarectal challenge, the Disease Activity Index (DAI) was assessed by treatment-blinded experimenters for each mouse according to the criteria score: stool consistency score (0, normal; 2, loose; 4, diarrhea), gross bleeding score (0, absence; 2, blood tinged; 4, presence), and weight loss score (0, none; 1, 1%-5%; 2, 5%-10%; 3, 10%-20%; 4, more than 20%); DAI=average of (stool consistency score+gross bleeding score+weight loss score).\nSelected compounds of the invention were tested in the assay. Efficacy in the model is evidenced by a decrease in DAI score as compared with the score from vehicle treated animals."}, "[4]": {"assay": "First in human study of safety, tolerability and pharmacokinetics in healthy subjects", "type": "in vivo", "details": "for Cmax at 14 days / Cmax: human, plasma, oral, healthy subjects; for Cmax at 14 days: 14 days administration up to 300 mg; for Cmax: single dose up to 1000 mg", "procedure": "Assay 9: First in Human Study to Evaluate the Safety, Tolerability and Pharmacokinetics in Healthy Subjects\nThe compound of Example 1 was evaluated in a double-blinded, randomized, placebo-controlled, single ascending dose (SAD) and multiple ascending dose (MAD) study of safety, tolerability, and pharmacokinetics in healthy subjects. Pharmacokinetic samples were collected up to 72 hours post the final dose in both the SAD study (after the first dose) and MAD study (after 14 days of once-daily dosing). The SAD study enrolled 5 cohorts and the MAD study enrolled 4 cohorts totaling 72 subjects, of which 71 completed the dosing period.\nPlasma pharmacokinetic (PK) parameters were determined by non-compartmental analysis using WinNonLin Version 6.4.0 (Pharsight, St Louis, Mo.). The plasma PK parameter presented here is:\nCmax: maximum concentration in plasma"}, "[5]": {"tested_on": "IL-4 induced STAT6 phosphorylation in THP-1 human monocytic cells", "assay": "Cellular JAK potency assay, THP-1", "details": "Homo sapiens, THP-1, read-out: THP-1 IL4 pIC50 (converted)"}, "[6]": {"tested_on": "IL-13 induced STAT6 phosphorylation in BEAS-2B human lung epithelial cells", "assay": "AlphaScreen cellular JAK potency assay, BEAS-2B", "details": "Homo sapiens, BEAS-2B, read-out: BEAS2B pIC50 (converted)"}, "[7]": {"assay": "Dynamic moisture sorption assessment", "type": "physicochemical", "procedure": "The DMS run was performed isothermally at 25° C."}, "[8]": {"assay": "Solid state stability assessment", "type": "physicochemical", "parameters": "Impurity at RRT 0.96 / Impurity at RRT 1.84: unit not given here", "text": "Solid State Stability Assessment\nAt specific intervals, the contents of a representative sample was removed and analyzed by HPLC for chemical purity and by Karl Fischer for water content."}, "[9]": {"details": "read-out: average Cmax plasma concentration"}, "[10]": {"details": "read-out: individual subject Cmax"}}, "note": "Where two headings read alike, the source gives them in different places."}
{"smiles": "C[C@@H]1CCN(C(=O)CC#N)C[C@@H]1N(C)c1ncnc2[nH]ccc12", "note": "[tofacitinib]", "values": [{"measurement": "treatment effect on B and T cell populations", "setting": "mouse splenic NK cells", "result": "No treatment effect"}, {"measurement": "splenic NK cell counts", "setting": "mouse splenic NK cells; mouse, tofacitinib 30 mg/kg, Example 1 up to 100 mg/kg", "result": "significantly decreased"}]}
{"smiles": "Cc1cc(Nc2cc3ncccc3c(N[C@@H]3C[C@H]4CC[C@@H](C3)N4CCC#N)n2)n[nH]1", "note": "[Example 1, 3-((1R,3s,5S)-3-((7-((5-methyl-1H-pyrazol-3-yl)amino)-1,6-naphthyridin-5-yl)amino)-8-azabicyclo[3.2.1]octan-8-yl)propanenitrile]", "values": [{"measurement": "Kp", "setting": "in vivo", "result": "> 450"}, {"measurement": "plasma concentration", "setting": "[1]", "result": "< 1", "unit": "ng/mL"}, {"measurement": "Kp at 6 hours", "setting": "[2]; 6 hours post dose, read-out: ratio of concentration in GI tissue to plasma", "result": "9 to 165"}, {"measurement": "Kp at 24 hours", "setting": "[2]; 24 hours post dose, read-out: GI tissue to plasma ratio", "result": "7 to 30"}, {"measurement": "minimal dose that caused a significant anti-colitic effect", "setting": "[3]; mouse oxazolone-induced colitis", "result": 1, "unit": "mg/kg"}, {"measurement": "decrease in DAI score as compared with vehicle treated animals", "setting": "[3]; mouse, PO, 1, 3, and/or 10 mg/kg BID", "result": "statistically significant decrease"}, {"measurement": "treatment effect on B and T cell populations", "setting": "mouse splenic NK cells", "result": "No treatment effect"}, {"measurement": "drug concentration in stool samples", "setting": "[4]; healthy human subjects", "result": "high drug concentration"}, {"measurement": "Cmax at 14 days", "setting": "[4]; [9]", "result": "< 15", "unit": "ng/mL"}, {"measurement": "Cmax at 14 days", "setting": "[4]; [10]", "result": "≤ 30", "unit": "ng/mL"}, {"measurement": "Cmax", "setting": "[4]; [9]", "result": "< 50", "unit": "ng/mL"}, {"measurement": "Cmax", "setting": "[4]; [10]", "result": "≤ 100", "unit": "ng/mL"}, {"measurement": "IC50", "setting": "[5]", "result": "31.6 to 200", "unit": "nM"}, {"measurement": "IC50", "setting": "[6]", "result": "31.6 to 200", "unit": "nM"}]}
{"smiles": "Cc1cc(Nc2cc3ncccc3c(N[C@@H]3C[C@H]4CC[C@@H](C3)N4CCC#N)n2)n[nH]1", "note": "[Form I, 3-((1R,3s,5S)-3-((7-((5-methyl-1H-pyrazol-3-yl)amino)-1,6-naphthyridin-5-yl)amino)-8-azabicyclo[3.2.1]octan-8-yl)propanenitrile]", "values": [{"measurement": "weight gain (moisture sorption)", "setting": "[7]; 5% to 90% relative humidity, room temperature, listed as Crystalline 3-(1R,3s,5S)-3-((7-((5-methyl-1H-pyrazol-3-yl)amino)-1,6-naphthyrid))", "result": "less than 0.15%"}, {"measurement": "hygroscopicity", "setting": "[7]; two cycles of sorption and desorption, 25° C.", "result": "non-hygroscopic"}, {"measurement": "changes in chemical content and impurity profile", "setting": "[8]; 3 months at 40° C. and 75% relative humidity", "result": "no statistically significant changes"}, {"measurement": "Assay", "setting": "[8]; T = 0", "result": 97.4, "unit": "% w/w"}, {"measurement": "HPLC purity", "setting": "[8]; T = 0", "result": 99.76, "unit": "a/a %"}, {"measurement": "Impurity at RRT 0.96", "setting": "[8]; T = 0", "result": 0.07}, {"measurement": "Impurity at RRT 1.84", "setting": "[8]; T = 0", "result": 0.08}, {"measurement": "Water (KF)", "setting": "[8]; T = 0", "result": "<0.2", "unit": "% w/w"}, {"measurement": "Assay", "setting": "[8]; T = 1 Month, 40° C./75% RH", "result": 98.7, "unit": "% w/w"}, {"measurement": "HPLC purity", "setting": "[8]; T = 1 Month, 40° C./75% RH", "result": 99.79, "unit": "a/a %"}, {"measurement": "Impurity at RRT 0.96", "setting": "[8]; T = 1 Month, 40° C./75% RH", "result": 0.07}, {"measurement": "Impurity at RRT 1.84", "setting": "[8]; T = 1 Month, 40° C./75% RH", "result": 0.08}, {"measurement": "Assay", "setting": "[8]; T = 3 Month, 25° C./60% RH", "result": 96.3, "unit": "% w/w"}, {"measurement": "HPLC purity", "setting": "[8]; T = 3 Month, 25° C./60% RH", "result": 99.77, "unit": "a/a %"}, {"measurement": "Impurity at RRT 0.96", "setting": "[8]; T = 3 Month, 25° C./60% RH", "result": 0.07}, {"measurement": "Impurity at RRT 1.84", "setting": "[8]; T = 3 Month, 25° C./60% RH", "result": 0.05}, {"measurement": "Assay", "setting": "[8]; T = 3 Month, 40° C./75% RH", "result": 93.8, "unit": "% w/w"}, {"measurement": "HPLC purity", "setting": "[8]; T = 3 Month, 40° C./75% RH", "result": 99.75, "unit": "a/a %"}, {"measurement": "Impurity at RRT 0.96", "setting": "[8]; T = 3 Month, 40° C./75% RH", "result": 0.07}, {"measurement": "Impurity at RRT 1.84", "setting": "[8]; T = 3 Month, 40° C./75% RH", "result": 0.05}, {"measurement": "Water (KF)", "setting": "[8]; T = 3 Month, 40° C./75% RH", "result": "<0.2", "unit": "% w/w"}]}
